Results published in a melting point compilation (Tetko et al.; mined from patent text by program, amines drawn as free bases though some values may be those of a salt).

First: CNS(=O)(=O)c1cc2c(c(C(=O)NCC3CCN(C)C3)c1)OCCO2 (stereo not given)
Second: O=C(C1CC1)N1CCC2(CC1)OCCO2
The melting point of the first is higher: 187 to 188 °C for the first, 72 to 74 °C for the second.

First: Cc1cc(NC(=O)Cc2ccccc2)cc(C)c1S(=O)(=O)C[N+](=O)[O-]
Second: O=C(O)C(=O)CC(=O)c1cn(Cc2ccncc2)c2ccccc2c1=O
The melting point of the first is lower: 158 to 159 °C for the first, greater than 300 °C for the second.

First: CCN(CC)C(=O)CCc1nc(-c2ccccc2Cl)nc2ccccc12
Second: O=c1oc(-c2ccccc2)cc(O)c1SCCCc1ccccc1
The melting point of the first is lower: 90 °C for the first, 114 to 116 °C for the second.

Compared with `Cc1cc(N)c(C)nc1OC(F)F`, `COc1ccc(-c2nc(C(F)(F)F)c(Br)[nH]2)cc1Cl` is higher in melting point: 38.4 to 39.4 °C for the first, 228 °C for the second.

First: CCOCc1nc2c(N)nc3cc(-c4ccncc4)ccc3c2n1CC(C)(C)O
Second: COc1ccnc(Nc2nc(-c3ccncc3)cs2)c1
The melting point of the first is higher: 220 to 221 °C for the first, 190 to 192 °C for the second.

First: O=C(C1CCN(S(=O)(=O)c2ccc(Br)cc2)CC1)N1CCC(c2ccncc2)CC1
Second: CS(=O)(=O)CCCCC(C1CCCCC1)S(=O)(=O)c1ccc(Cl)cc1 (stereo not given)
The melting point of the first is higher: 154 to 155 °C for the first, 104 to 106 °C for the second.

First: CCc1cc(=O)c2c([nH]1)COCC2
Second: CCCCNS(=O)(=O)c1cc(C(=O)Cl)ccc1Cl
The melting point of the first is higher: 216 to 218 °C for the first, 110 °C for the second.

Compared with `C#CCOc1cc(Oc2ccc(Cl)c(Cl)c2)ncn1`, `Clc1cc2nc(CBr)c(CBr)nc2cc1Cl` is higher in melting point: 109 °C for the first, 154 to 156 °C for the second.

First: O=C(Cl)OCC1c2c(c3ccccc3c3ccccc23)-c2c1c1ccccc1c1ccccc21
Second: O=C(Nc1ccc(Cl)cc1)NC1N=C(c2ccccc2)c2ccccc2N(CC(=O)OCc2ccccc2)C1=O (stereo not given)
The melting point of the first is lower: 188 to 189 °C for the first, 220 to 222 °C for the second.

First: COC(Cn1cncn1)(c1ccc(F)cc1F)C(F)(F)S(=O)(=O)CCO (stereo not given)
Second: COc1cc2c(CC(=O)O)c(C)n(C(=O)c3ccc(Cl)s3)c2cc1F
The melting point of the first is lower: 108 to 110 °C for the first, 169 °C for the second.

First: CC1(C)CCC(C)(C)c2cc(-c3cc(-c4ccc(C(=O)O)nc4)ccc3-c3ccccc3)ccc21
Second: COc1ccc(-c2cc(C(=O)NCCCCCCCCc3ccccc3)cc(-c3cccc(C(F)(F)F)c3)c2OCC(=O)O)cc1
The melting point of the first is higher: 160 to 162 °C for the first, 139 to 144 °C for the second.

First: O=C(O)c1ccc(CF)cc1
Second: Cc1ccc(Sc2cc(C(=O)O)ccc2C(=O)O)cc1
The melting point of the first is lower: 192 to 194 °C for the first, 326 °C for the second.

First: CCCCCCCCCCCCCCCCNc1ccc(C(=O)OCC(CO)OC(C)=O)cc1 (stereo not given)
Second: CCCCCCOc1ccc(-c2cc(C=O)ccc2C=O)cc1
The melting point of the first is higher: 67 °C for the first, 44.5 to 45.5 °C for the second.

Compared with `O=C(O)c1ccc2c(c1)c(=O)[nH]c(=O)n2CCCCN1CCC(OC(c2ccccc2)c2ccccc2)CC1`, `Nc1cccc(-c2ccc(CCN3CCC4(CC3)NC(=O)N(Cc3ccccc3)C4=O)cc2)n1` is higher in melting point: 161 to 163 °C for the first, 190 °C for the second.

First: CC(Oc1ccc(Oc2ccc(C(F)(F)F)cc2Cl)cc1)C(=O)N1CCCO1 (stereo not given)
Second: O=C(Nc1nnc(C(F)(F)F)s1)c1ccc2ccccc2c1
The melting point of the first is lower: 66.5 to 67.5 °C for the first, 249 to 251 °C for the second.

Compared with `COc1cc2c(cc1OC)C1CCC(O)CC1N=C2c1ccc(OCC2CC2)c(OCC2CC2)c1` (stereo not given), `CCC1C(C)=NN=C(c2ccc(OC)c(OC)c2)c2cc(Cl)ccc21` (stereo not given) is higher in melting point: 172 to 174 °C for the first, 185 to 187 °C for the second.

First: CC(C)c1nn(-c2ccc(C#N)nn2)cc1CCCO
Second: NC(=O)CCc1cc(-c2ccncc2)sc1-c1ccncc1
The melting point of the first is lower: 140 to 141 °C for the first, 196 °C for the second.

First: Cc1cc(C2=NOC(c3cc(Cl)cc(Cl)c3)(C(F)(F)F)C2)ccc1C(=O)NC1CSSC1 (stereo not given)
Second: Cn1ccc2cc(N3Cc4c(cccc4[N+](=O)[O-])C3=O)ccc21
The melting point of the first is lower: 73 °C for the first, 267 to 271 °C for the second.

First: N#CCc1c(C(F)(F)F)cccc1C(F)(F)F
Second: CS(=O)(=O)Oc1ccccc1C(=O)O
The melting point of the first is lower: 84.5 to 86 °C for the first, 125 to 126 °C for the second.

Compared with `CC(F)=C1CCC2C3CC=C4CC(O[Si](C)(C)C(C)(C)C)CCC4(C)C3CCC12C` (stereo not given), `COC(=O)C(C#N)=CC1=C(N2CCCC2)CCCC1` is higher in melting point: 128 to 130 °C for the first, 133 to 134 °C for the second.
